For three compounds, neurite outgrowth activity results are on record in US8569524B2, “Bis(tetrahydrofuran) compound, method for production of the compund, and use of the compound” (Glytech Inc., priority 2007, dated 2013).

For the assay, the system named is Pheochromocytoma (PC12) cells. As to the kind of experiment: Neurite outgrowth activity test in PC12 cells in the presence of NGF. The note with it: in the presence of DMSO and NGF (20 ng/ml), compared with the sample without compound, micrographs. It counts as cell-based. The protocol: When the solvent was ethanol, the concentrations were targeted at 1 mM, 0.1 mM, and […]. A sample at 1 mM concentration was prepared first. When the amount of sample was 1 mg, the sample was dissolved in 100% ethanol (1/molecular weight×1,000)/2 ml, and an equal amount of Milli-Q (1/molecular weight×1,000)/2 ml was added thereto, after which the sample was filtered through a […] into a sample tube.
A sample at 0.1 mM concentration was prepared by diluting 1 mM solution 10-fold with 50% ethanol. Likewise, a sample at […] concentration was prepared from 0.1 mM solution.
When the solvent was DMSO, the concentrations were targeted at 10 mM, 1 mM, and 0.1 mM.
When the sample is prepared in ethanol, the sample is diluted 100-fold with the medium; and when the sample is prepared in DMSO, the sample is diluted 1,000-fold in the medium. The actual concentrations of the sample were thus […] both when the sample was prepared in ethanol and when the sample was prepared in DMSO.
Measurement was carried out using the following equipment and software.
Statistical processing of obtained data was carried out using “Origin ver. 7.0” (OriginLab, USA) and Mac Statistical Analysis. The significant difference was determined using Student's T-test and Dunnett's T-test.
Pheochromocytoma (PC12) cells were purchased from the Health Science Research Resources Bank of the Japan Health Sciences Foundation. Cell number: JCRB0733, product name: PC-12.
PC12 cells were cultivated in a medium having a composition including DMEM/10% HS, 5% FBS, 50 IU/ml penicillin, and […], in a culture flask coated with rat tail-derived collagen, in an incubator (95% humidity, 5% carbon dioxide). When the cell density becomes obviously too low, or when the cells overproliferate, the cells would be under load, requiring a longer time for proliferation and/or causing the cells to dye out. Thus, the cells were subcultured such that the cells would be present at a density of about 80% in the flask. When cells were subcultured or when activity evaluation tests were carried out, the cells were treated with trypsin (0.25%, 5 min.) to obtain a cell suspension, which was then seeded into a collagen-coated culture flask or plate.
The condition of the PC12 cells was observed; it was confirmed that at least 50% of the PC12 cells were fused. The plate was coated with rat tail-derived collagen; on the following day, the plate was washed twice with Milli-Q water. Then, a medium having a composition including DMEM/10% HS, 5% FBS, 50 IU/ml penicillin, and […] was prepared.
The medium in the culture flask was removed by suction. The PC12 cells were washed twice with PBS (5 mL), and trypsin (3 mL) was added thereto, which was then left to stand for about 5 minutes. A cell suspension was obtained by pipetting. In order to inhibit the activity of the trypsin, the cell suspension was transferred to a 50 mL centrifuge tube containing a serum-containing medium (2 mL). The total amount was adjusted to 10 mL with PBS, and the cell suspension was centrifuged (1,000 rpm×5 min). After centrifuging, the supernatant liquid was removed by suction using a pump, PBS (10 mL) was added thereto, and pipetting was carried out several times using a bent-tip Komagome pipette. After pipetting, the cell suspension was centrifuged again, and a similar operation was repeated twice. […]

With `CCO[C@]1(C)C[C@@H]2OCC3=CCCC[C@]32O1` [Compound 1D-2-3], the neurite outgrowth activity result (10 μM compound) is given as “further enhanced neurite outgrowth activity”.

With `CO[C@]1(C)C[C@@H]2OCC3=CCCCC32O1` (some centres unmarked) [Compound 1D-2-1], the neurite outgrowth activity entry reads like this: (1 μM compound) “further enhanced neurite outgrowth activity”; (10 μM compound) “further enhanced neurite outgrowth activity”.

For the compound `CO[C@@]1(C)C[C@@H]2OCC3=CCCCC32O1` (some centres unmarked) [Compound 1C-2-1], the neurite outgrowth activity result (1 μM compound) is given as “further enhanced neurite outgrowth activity” and the neurite outgrowth activity entry (10 μM compound) was “further enhanced neurite outgrowth activity”.
